Data on 25 compounds can be found in US20080234262A1 (Wyeth, priority 2007, published 2008).

In test [1] the target is PI3K (Homo sapiens, UniProt P42336). Put plainly: Fluorescence polarization assay for PI3K.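 Note: PI3K kinase reaction on PIP2 with ATP, 30-60 min, product sensed by GST-GRP with red probe in fluorescence polarization (mP), controls without enzyme and at zero time.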 It is filed as biochemical. The settings on record: PI3Kα; read-out: PI3Kα IC50. Background: Polarisation of emitted light reports the rotation of a fluorescent probe.
In test [2] the test system is prostate line LNCap. Briefly: In vitro cell culture growth assay (MTS), LNCap. The test is classed as cell-based, human. The following applies: LNCap cells, three days after drug treatment.
Test [3] has as its system breast line MDA468. Put plainly: In vitro cell culture growth assay (MTS), MDA468. The test is classed as cell-based, human. The following applies: MDA468 cells, three days after drug treatment. In outline:
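MDA468 or LNCap cells received inhibitors one day after plating and were grown for three days. Viable cell density read by MTS conversion, absorbance 490 nm, expressed as percent of control growth versus vehicle-treated cells on the same plate.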

Sequence of PI3K (P42336 whole entry): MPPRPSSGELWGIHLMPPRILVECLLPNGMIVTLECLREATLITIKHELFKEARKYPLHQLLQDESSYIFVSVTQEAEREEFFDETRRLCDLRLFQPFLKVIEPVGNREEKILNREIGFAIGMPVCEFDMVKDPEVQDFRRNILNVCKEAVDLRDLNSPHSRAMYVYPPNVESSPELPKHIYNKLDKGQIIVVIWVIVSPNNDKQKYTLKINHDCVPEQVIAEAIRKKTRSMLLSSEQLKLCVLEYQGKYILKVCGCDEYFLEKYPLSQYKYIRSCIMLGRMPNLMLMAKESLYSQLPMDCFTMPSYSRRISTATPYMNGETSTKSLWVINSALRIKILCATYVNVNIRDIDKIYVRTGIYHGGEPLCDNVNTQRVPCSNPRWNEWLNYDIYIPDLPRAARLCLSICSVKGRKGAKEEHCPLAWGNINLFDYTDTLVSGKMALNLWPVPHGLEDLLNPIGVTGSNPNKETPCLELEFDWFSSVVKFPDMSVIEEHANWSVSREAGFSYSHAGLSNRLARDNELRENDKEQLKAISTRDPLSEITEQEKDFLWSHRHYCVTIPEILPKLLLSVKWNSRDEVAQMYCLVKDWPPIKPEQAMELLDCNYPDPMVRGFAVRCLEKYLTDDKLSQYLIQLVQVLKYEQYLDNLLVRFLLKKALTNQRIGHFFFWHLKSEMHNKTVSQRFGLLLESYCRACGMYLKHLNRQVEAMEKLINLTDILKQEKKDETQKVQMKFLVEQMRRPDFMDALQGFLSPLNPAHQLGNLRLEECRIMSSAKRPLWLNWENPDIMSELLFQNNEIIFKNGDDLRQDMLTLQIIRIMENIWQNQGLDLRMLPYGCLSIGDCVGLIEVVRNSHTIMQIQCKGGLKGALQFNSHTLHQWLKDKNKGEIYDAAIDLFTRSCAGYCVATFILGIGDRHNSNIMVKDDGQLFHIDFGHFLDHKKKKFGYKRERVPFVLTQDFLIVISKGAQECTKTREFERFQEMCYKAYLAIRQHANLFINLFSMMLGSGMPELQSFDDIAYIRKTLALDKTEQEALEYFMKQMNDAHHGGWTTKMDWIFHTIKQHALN
Sequence of PI3K (P27986 whole entry partner): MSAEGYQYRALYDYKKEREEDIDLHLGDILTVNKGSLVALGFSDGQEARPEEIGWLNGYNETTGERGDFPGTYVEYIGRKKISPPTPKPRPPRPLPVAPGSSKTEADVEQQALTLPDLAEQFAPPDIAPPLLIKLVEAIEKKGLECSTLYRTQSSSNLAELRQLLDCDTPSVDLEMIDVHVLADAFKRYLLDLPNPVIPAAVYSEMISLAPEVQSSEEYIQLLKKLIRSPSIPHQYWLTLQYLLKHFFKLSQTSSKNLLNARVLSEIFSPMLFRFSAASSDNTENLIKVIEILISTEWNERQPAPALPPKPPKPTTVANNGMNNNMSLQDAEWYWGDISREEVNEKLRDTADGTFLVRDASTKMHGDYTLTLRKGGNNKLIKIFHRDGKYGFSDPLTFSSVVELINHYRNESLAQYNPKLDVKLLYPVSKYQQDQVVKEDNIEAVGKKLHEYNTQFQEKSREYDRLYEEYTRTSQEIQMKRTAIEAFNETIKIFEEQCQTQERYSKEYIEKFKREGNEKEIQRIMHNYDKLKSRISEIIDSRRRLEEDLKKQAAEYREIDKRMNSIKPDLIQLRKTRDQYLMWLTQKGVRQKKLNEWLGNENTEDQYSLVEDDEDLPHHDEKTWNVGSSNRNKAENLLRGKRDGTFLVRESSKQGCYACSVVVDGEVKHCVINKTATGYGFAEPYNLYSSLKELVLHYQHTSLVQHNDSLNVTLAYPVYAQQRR

Usually IC50 stands for the point on the concentration scale where inhibition reaches its midpoint. Turning to `O=C(NCC(F)(F)F)Nc1ccc(-c2nc(N3CCOCC3)c3cnn(C4CCN(Cc5ccccc5)CC4)c3n2)cc1` [Compound 535, 1-{4-[1-(1-benzylpiperidin-4-yl)-4-morpholin-4-yl-1H-pyrazolo[3,4-d]pyrimidin-6-yl]phenyl}-3-(2,2,2-trifluoroethyl)urea], the IC50 in test [1] stood at 590 nM; in test [2] (Homo sapiens, LNCaP, 72 h), 320 nM; in test [3] (Homo sapiens, 72 h) it was 1300 nM.

For the compound `CC(C)OC(=O)N1CCC(n2ncc3c(N4CCOCC4)nc(-c4ccc(N)cc4)nc32)CC1` [Compound 830, isopropyl 4-[6-(4-aminophenyl)-4-morpholin-4-yl-1H-pyrazolo[3,4-d]pyrimidin-1-yl]piperidine-1-carboxylate], the IC50 in test [1] is 12000 nM; in test [2] (Homo sapiens, LNCaP, 72 h), 1800 nM; in test [3] (Homo sapiens, 72 h), 16000 nM.

In the case of `CC(C)(C)OC(=O)N1CCC[C@H](n2ncc3c(N4CCOCC4)nc(-c4ccc5[nH]ccc5c4)nc32)C1` [Compound 169], the IC50 turned out to be 341 nM in test [1]; 2000 nM in test [2] (Homo sapiens, LNCaP, 72 h); 12000 nM in test [3] (Homo sapiens, 72 h).

Take `O=C(NCCF)Nc1ccc(-c2nc(N3CCOCC3)c3cnn(C4CCN(Cc5cccnc5)CC4)c3n2)cc1F` [Example 374, 1-(2-fluoroethyl)-3-(2-fluoro-4-{4-morpholin-4-yl-1-[1-(pyridin-3-ylmethyl)piperidin-4-yl]-1H-pyrazolo[3,4-d]pyrimidin-6-yl}phenyl)urea]: the concentration for half-maximal inhibition (IC50) in test [1] was determined as 619 nM; in test [2] (Homo sapiens, LNCaP, 72 h), 140 nM; in test [3] (Homo sapiens, 72 h) it was 1300 nM.

Consider `CCOC(=O)N1CCC(n2ncc3c(N4CCOCC4)nc(-c4ccc(Nc5ncc[nH]5)cc4)nc32)CC1` [Compound 887, ethyl 4-{6-[4-(1H-imidazol-2-ylamino)phenyl]-4-morpholin-4-yl-1H-pyrazolo[3,4-d]pyrimidin-1-yl}piperidine-1-carboxylate], for which the half-maximal inhibitory concentration (IC50) was found to be 168 nM in test [1]; 1200 nM in test [2] (Homo sapiens, LNCaP, 72 h); 2300 nM in test [3] (Homo sapiens, 72 h).

With `CNC(=O)Nc1ccc(-c2nc(N3CCOCC3)c3cnn(C4CCN(C(=O)C(C)C)CC4)c3n2)cc1` [Compound 719, 1-{4-[1-(1-isobutyrylpiperidin-4-yl)-4-morpholin-4-yl-1H-pyrazolo[3,4-d]pyrimidin-6-yl]phenyl}-3-methylurea], the IC50 came out at 148 nM in test [1], 150 nM in test [2] and 250 nM in test [3].

With `CN(C)CCCNC(=O)Nc1ccc(-c2nc(N3CCOCC3)c3cnn(C4CCN(Cc5ccccc5)CC4)c3n2)cc1` [Compound 271, 1-{4-[1-(1-benzylpiperidin-4-yl)-4-morpholin-4-yl-1H-pyrazolo[3,4-d]pyrimidin-6-yl]phenyl}-3-[3-(dimethylamino)propyl]urea], the 50% inhibitory concentration (IC50) turned out to be 158 nM in test [1]; 650 nM in test [2] (Homo sapiens, LNCaP, 72 h); 2000 nM in test [3] (Homo sapiens, 72 h).

As to `Nc1ccnc(-c2nc(N3CCOCC3)c3cnn(C4CCN(C(=O)c5cccnc5)CC4)c3n2)c1` [Compound 678, 2-{4-morpholin-4-yl-1-[1-(pyridin-3-ylcarbonyl)piperidin-4-yl]-1H-pyrazolo[3,4-d]pyrimidin-6-yl}pyridin-4-amine], the values for the IC50 in test [1], in test [2] and in test [3] were 6660 nM, 39000 nM and > 60000 nM, respectively.

With `COC(=O)Nc1ccc(-c2nc(N3CCOCC3)c3cnn(C4CCN(C(=O)c5ccccc5OC)CC4)c3n2)cc1` [Example 446, methyl (4-{1-[1-(2-methoxybenzoyl)piperidin-4-yl]-4-morpholin-4-yl-1H-pyrazolo[3,4-d]pyrimidin-6-yl}phenyl)carbamate], the IC50 in test [1] stood at 888 nM; in test [2] (Homo sapiens, LNCaP, 72 h), 350 nM; in test [3] (Homo sapiens, 72 h), 900 nM.

On to `CNC(=O)Nc1ccc(-c2nc(N3CCOCC3)c3cnn(C4CCN(C(C)=O)CC4)c3n2)cc1` [Example 472, 1-{4-[1-(1-acetylpiperidin-4-yl)-4-morpholin-4-yl-1H-pyrazolo[3,4-d]pyrimidin-6-yl]phenyl}-3-methylurea], for which the half-maximal inhibitory concentration (IC50) in test [1] was 225 nM; in test [2] (Homo sapiens, LNCaP, 72 h), 800 nM; in test [3] (Homo sapiens, 72 h), 1200 nM.

For the compound `CNC(=O)Nc1ccc(-c2nc(N3CCOCC3)c3cnn(C4CCN(Cc5cncc(F)c5)CC4)c3n2)cc1` [Compound 637, 1-[4-(1-{1-[(5-fluoropyridin-3-yl)methyl]piperidin-4-yl}-4-morpholin-4-yl-1H-pyrazolo[3,4-d]pyrimidin-6-yl)phenyl]-3-methylurea], the half-maximal inhibitory concentration (IC50) in test [1] came out at 153 nM; in test [2] it was 110 nM; in test [3] it was 550 nM.

With `COC(=O)N1CCC(n2ncc3c(N4CCOCC4)nc(-c4ccc(NC(=O)NCCO)cc4)nc32)CC1` [Compound 733, methyl 4-[6-(4-{[(2-hydroxyethyl)carbamoyl]amino}phenyl)-4-morpholin-4-yl-1H-pyrazolo[3,4-d]pyrimidin-1-yl]piperidine-1-carboxylate], the IC50 is 402 nM in test [1]; 800 nM in test [2] (Homo sapiens, LNCaP, 72 h); 580 nM in test [3] (Homo sapiens, 72 h).

`CCCOC(=O)N1CCC(n2ncc3c(N4CCOCC4)nc(-c4ccc(NC(=O)NCC)cc4)nc32)CC1` [Compound 852, propyl 4-(6-{4-[(ethylcarbamoyl)amino]phenyl}-4-morpholin-4-yl-1H-pyrazolo[3,4-d]pyrimidin-1-yl)piperidine-1-carboxylate]: the IC50 in test [1] stood at 577 nM; in test [2] (Homo sapiens, LNCaP, 72 h) it was 80 nM; in test [3] (Homo sapiens, 72 h), 510 nM.

In the case of `CNC(=O)Nc1ccc(-c2nc(N3CCOCC3)c3cnn([C@H]4CCCN(C(=O)OC(C)(C)C)C4)c3n2)cc1` [Compound 872, tert-butyl (3S)-3-(6-{4-[(methylcarbamoyl)amino]phenyl}-4-morpholin-4-yl-1H-pyrazolo[3,4-d]pyrimidin-1-yl)piperidine-1-carboxylate], the half-inhibitory concentration (IC50) was 169 nM in test [1]; 270 nM in test [2] (Homo sapiens, LNCaP, 72 h); 1000 nM in test [3] (Homo sapiens, 72 h).

As for `COC(=O)N1CCC(n2ncc3c(N4CCOCC4)nc(-c4ccc(NC(=O)Nc5ccncc5F)cc4)nc32)CC1` [Compound 864, methyl 4-[6-(4-{[(3-fluoropyridin-4-yl)carbamoyl]amino}phenyl)-4-morpholin-4-yl-1H-pyrazolo[3,4-d]pyrimidin-1-yl]piperidine-1-carboxylate], the half-maximal inhibitory concentration (IC50) was 116 nM in test [1]; 27.4 nM in test [2] (Homo sapiens, LNCaP, 72 h); 98 nM in test [3] (Homo sapiens, 72 h).

Take `Cc1ccc(CN2CCC(n3ncc4c(N5CCOCC5)nc(-c5ccc6[nH]ccc6c5)nc43)CC2)cc1` [Example 56]: the IC50 worked out at 425 nM in test [1]; 2000 nM in test [2] (Homo sapiens, LNCaP, 72 h); 2700 nM in test [3] (Homo sapiens, 72 h).

On to `CNC(=O)Nc1ccc(-c2nc(N3CCOCC3)c3cnn(C4CCN(CC(=O)O)CC4)c3n2)cc1` [Compound 798, [4-(6-{4-[(methylcarbamoyl)amino]phenyl}-4-morpholin-4-yl-1H-pyrazolo[3,4-d]pyrimidin-1-yl)piperidin-1-yl]acetic acid], for which the IC50 in test [1] was 438 nM; in test [2] (Homo sapiens, LNCaP, 72 h) it was > 60000 nM; in test [3] (Homo sapiens, 72 h), > 60000 nM.

As for `COC(=O)N1CCC(n2ncc3c(N4CCOC(C)C4)nc(-c4ccc(NC(=O)NC5CC5)cc4)nc32)CC1` (stereo not drawn) [Compound 843, methyl 4-[6-{4-[(cyclopropylcarbamoyl)amino]phenyl}-4-(2-methylmorpholin-4-yl)-1H-pyrazolo[3,4-d]pyrimidin-1-yl]piperidine-1-carboxylate], the IC50 in test [1] was 1380 nM; in test [2] (Homo sapiens, LNCaP, 72 h) it was 80 nM; in test [3] (Homo sapiens, 72 h), 900 nM.

Turning to `O=C(Cc1ccccc1)N1CCC(n2ncc3c(N4CCOCC4)nc(-c4ccc5[nH]ccc5c4)nc32)CC1` [Compound 492, 6-(1H-indol-5-yl)-4-morpholin-4-yl-1-[1-(phenylacetyl)piperidin-4-yl]-1H-pyrazolo[3,4-d]pyrimidine], the 50% inhibitory concentration (IC50) in test [1] turned out to be 692 nM; in test [2] (Homo sapiens, LNCaP, 72 h), 700 nM; in test [3] (Homo sapiens, 72 h), 3000 nM.

`CC(c1ccccc1)N1CCC(n2ncc3c(N4CCOCC4)nc(-c4ccc5[nH]ccc5c4)nc32)CC1` (stereo not drawn) [Compound 240, 6-(1H-indol-5-yl)-4-morpholin-4-yl-1-[1-(1-phenylethyl)piperidin-4-yl]-1H-pyrazolo[3,4-d]pyrimidine]: the IC50 in test [1] was 2670 nM; in test [2] (Homo sapiens, LNCaP, 72 h) it was 3800 nM; in test [3] (Homo sapiens, 72 h), 3500 nM.

For `C#CCNC(=O)Nc1ccc(-c2nc(N3CCOCC3)c3cnn(C4CCN(Cc5ccccc5)CC4)c3n2)cc1` [Compound 557, 1-{4-[1-(1-benzylpiperidin-4-yl)-4-morpholin-4-yl-1H-pyrazolo[3,4-d]pyrimidin-6-yl]phenyl}-3-prop-2-yn-1-ylurea], the half-inhibitory concentration (IC50) in test [1] came to 173 nM; in test [2] (Homo sapiens, LNCaP, 72 h) it was 400 nM; in test [3] (Homo sapiens, 72 h) it was 3900 nM.

As to `CNC(=O)Nc1ccc(-c2nc(N3CCOCC3)c3cnn(C4CCNCC4)c3n2)cc1` [Example 338, 1-methyl-3-[4-(4-morpholin-4-yl-1-piperidin-4-yl-1H-pyrazolo[3,4-d]pyrimidin-6-yl)phenyl]urea], the IC50 was found to be 23 nM in test [1]; 500 nM in test [2] (Homo sapiens, LNCaP, 72 h); 1300 nM in test [3] (Homo sapiens, 72 h).

Consider `CC(=O)Nc1ccc(-c2nc(N3CCOCC3)c3cnn(CCN4CCCCC4)c3n2)cc1` [Compound 127], for which the IC50 was 6520 nM in test [1]; 5000 nM in test [2] (Homo sapiens, LNCaP, 72 h); 18000 nM in test [3] (Homo sapiens, 72 h).

For the compound `CN(C)CCCNC(=O)Nc1ccc(-c2nc(N3CCOCC3)c3cnn(C4CCN(Cc5ccccc5)CC4)c3n2)cc1` [Compound 516, 1-{4-[1-(1-benzylpiperidin-4-yl)-4-morpholin-4-yl-1H-pyrazolo[3,4-d]pyrimidin-6-yl]phenyl}-3-[3-(dimethylamino)propyl]urea], the IC50 was found to be 158 nM in test [1]; 650 nM in test [2] (Homo sapiens, LNCaP, 72 h); 2000 nM in test [3] (Homo sapiens, 72 h).

Consider `O=C(NC1CCCC1)c1ccc(-c2nc(N3CCOCC3)c3cnn(C4CCN(Cc5ccccc5)CC4)c3n2)cc1` [Example 70], for which the concentration for half-maximal inhibition (IC50) in test [1] was found to be 3870 nM; in test [2] (Homo sapiens, LNCaP, 72 h), 3000 nM; in test [3] (Homo sapiens, 72 h), 15000 nM.
